{
  "source": "ChEMBL document CHEMBL1201862",
  "about": "“PubChem BioAssay data set” (2004)",
  "key": {"[1]": {"experiment": "cytotoxicity in HeLa cells, dose response, cytotoxicity control, cell-based, 24 h, dry powder, set 2 (AID 651774)", "type": "functional"}, "[2]": {"target": "Protein disulfide-isomerase (Homo sapiens, UniProt P07237)", "sequence (P07237 whole entry)": "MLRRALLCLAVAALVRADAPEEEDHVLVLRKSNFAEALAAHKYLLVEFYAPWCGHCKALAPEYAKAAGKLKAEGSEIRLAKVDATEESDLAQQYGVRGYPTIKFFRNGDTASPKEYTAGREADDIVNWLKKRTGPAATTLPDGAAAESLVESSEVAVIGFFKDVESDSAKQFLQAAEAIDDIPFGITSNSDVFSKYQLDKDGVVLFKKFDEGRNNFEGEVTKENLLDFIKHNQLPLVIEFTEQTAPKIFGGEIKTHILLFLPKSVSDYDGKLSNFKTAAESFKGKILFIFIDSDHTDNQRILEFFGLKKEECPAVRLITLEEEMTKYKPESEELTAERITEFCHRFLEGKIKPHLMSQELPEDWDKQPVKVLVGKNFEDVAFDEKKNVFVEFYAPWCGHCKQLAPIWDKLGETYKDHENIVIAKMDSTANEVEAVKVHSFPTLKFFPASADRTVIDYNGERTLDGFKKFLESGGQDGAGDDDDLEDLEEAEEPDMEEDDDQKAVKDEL", "experiment": "PDI inhibitors, insulin turbidity readout, confirmation, biochemical, dry powder samples, set 2 (AID 652146)"}, "CHO": {"test_system": "CHO", "experiment": "cytotoxicity in TLR9-MyD88 CHO cells, dose response, cytotoxicity control for TLR9-MyD88 binding inhibitor project, cell-based, luminescence (AID 588339);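 also: CHO cells stably coexpressing TLR9 and MyD88 fusions from primary screen; compound exposure lasted 48 hours before viability readout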", "type": "functional, hamster", "settings": "Cricetulus griseus"}, "Beta Lactamase": {"target": "Beta Lactamase (Pseudomonas aeruginosa, UniProt Q932Y6)", "sequence (Q932Y6 whole entry)": "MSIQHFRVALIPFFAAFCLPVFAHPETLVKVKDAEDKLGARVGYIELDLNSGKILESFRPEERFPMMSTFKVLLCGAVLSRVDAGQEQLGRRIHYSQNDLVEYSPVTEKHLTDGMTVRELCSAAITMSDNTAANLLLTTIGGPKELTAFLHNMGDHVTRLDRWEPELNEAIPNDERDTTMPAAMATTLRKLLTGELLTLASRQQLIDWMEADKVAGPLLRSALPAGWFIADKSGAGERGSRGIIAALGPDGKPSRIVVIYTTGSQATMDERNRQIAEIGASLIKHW", "experiment": "beta-lactamase reporter inhibitor potency, dose response, artefact control for TLR9-MyD88 binding inhibitor project, BLA reporter cells, FRET fluorescence (AID 588341);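 also: cell based assay in CHO-K1 cells stably expressing beta-lactamase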", "type": "cell-based"}, "[3]": {"target": "T1, Rac GTPase-activating protein 1 (Homo sapiens, UniProt Q9H0H5)", "T1 sequence (Q9H0H5 whole entry)": "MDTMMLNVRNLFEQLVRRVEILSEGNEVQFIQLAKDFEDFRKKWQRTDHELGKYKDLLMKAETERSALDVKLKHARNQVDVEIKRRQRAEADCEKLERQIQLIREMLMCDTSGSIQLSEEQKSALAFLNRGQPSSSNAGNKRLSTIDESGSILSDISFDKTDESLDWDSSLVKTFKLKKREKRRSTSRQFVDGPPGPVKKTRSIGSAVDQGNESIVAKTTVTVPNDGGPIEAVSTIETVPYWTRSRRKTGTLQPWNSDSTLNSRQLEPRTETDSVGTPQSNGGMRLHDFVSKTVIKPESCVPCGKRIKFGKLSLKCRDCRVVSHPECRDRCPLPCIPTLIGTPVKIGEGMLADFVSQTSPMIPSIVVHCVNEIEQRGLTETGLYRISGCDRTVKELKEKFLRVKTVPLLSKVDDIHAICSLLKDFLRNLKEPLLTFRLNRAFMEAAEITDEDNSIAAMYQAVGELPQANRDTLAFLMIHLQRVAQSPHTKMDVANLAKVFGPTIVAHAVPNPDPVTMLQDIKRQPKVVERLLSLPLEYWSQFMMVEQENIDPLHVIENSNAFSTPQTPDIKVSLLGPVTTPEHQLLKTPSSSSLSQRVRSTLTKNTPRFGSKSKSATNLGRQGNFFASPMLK", "experiment": "MgcRacGAP GTPase-activating activity inhibitors, confirmation, biochemical, ADP Hunter fluorescence, primary and confirmatory (AID 624330)", "type": "functional"}, "NS3": {"target": "NS3 (Hepatitis C virus, UniProt A3EZJ3)", "sequence (A3EZJ3 whole entry)": "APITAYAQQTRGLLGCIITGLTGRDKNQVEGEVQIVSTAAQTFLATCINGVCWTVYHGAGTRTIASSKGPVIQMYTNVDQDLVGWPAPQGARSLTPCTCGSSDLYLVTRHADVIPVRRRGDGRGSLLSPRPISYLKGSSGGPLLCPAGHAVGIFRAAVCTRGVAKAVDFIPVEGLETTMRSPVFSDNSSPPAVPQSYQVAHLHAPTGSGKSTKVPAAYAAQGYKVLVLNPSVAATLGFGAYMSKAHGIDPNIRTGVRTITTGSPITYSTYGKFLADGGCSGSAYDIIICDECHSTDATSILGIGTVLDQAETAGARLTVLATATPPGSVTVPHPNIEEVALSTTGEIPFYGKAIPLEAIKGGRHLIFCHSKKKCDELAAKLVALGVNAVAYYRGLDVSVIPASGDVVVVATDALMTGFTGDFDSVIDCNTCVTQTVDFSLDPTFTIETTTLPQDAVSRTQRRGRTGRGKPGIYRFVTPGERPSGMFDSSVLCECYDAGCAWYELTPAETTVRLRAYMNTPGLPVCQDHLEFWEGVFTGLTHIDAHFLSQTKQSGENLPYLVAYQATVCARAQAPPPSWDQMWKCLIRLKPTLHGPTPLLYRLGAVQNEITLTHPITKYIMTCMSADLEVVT", "experiment": "HCV NS3 helicase inhibitor potency, dose response, biochemical, fluorescence polarization, ChemBridge library (AID 743264)"}, "[4]": {"experiment": "inhibitors of firefly luciferase expression or activity, dose response, H4 neuroglioma cells, luminescence (AID 1990)", "type": "functional, cell-based"}, "[5]": {"experiment": "Luminescence Cell-Based Dose Response HTS to Identify Inhibitors of 5'UTR Stem-Loop Driven Prion Protein mRNA Translation in H4 Neuroglioblastoma Cells. [Related pubchem assays: 1827 (Project Summary), 1813 (Primary HTS)]", "type": "functional"}, "[6]": {"experiment": "inhibitors of SNCA 5'UTR-driven reporter translation, confirmation, H4 neuroglioma cells, luminescence (AID 1988)", "type": "functional, cell-based"}, "[7]": {"experiment": "Counterscreen for […] of the human trace amine associated receptor 1 (TAAR1): Fluorescence-based cell-based high throughput dose response assay to identify nonselective Ga16 agonists.", "type": "functional"}, "[8]": {"target": "T2, Trace amine-associated receptor 1 (Homo sapiens, UniProt Q96RJ0)", "T2 sequence (Q96RJ0 whole entry)": "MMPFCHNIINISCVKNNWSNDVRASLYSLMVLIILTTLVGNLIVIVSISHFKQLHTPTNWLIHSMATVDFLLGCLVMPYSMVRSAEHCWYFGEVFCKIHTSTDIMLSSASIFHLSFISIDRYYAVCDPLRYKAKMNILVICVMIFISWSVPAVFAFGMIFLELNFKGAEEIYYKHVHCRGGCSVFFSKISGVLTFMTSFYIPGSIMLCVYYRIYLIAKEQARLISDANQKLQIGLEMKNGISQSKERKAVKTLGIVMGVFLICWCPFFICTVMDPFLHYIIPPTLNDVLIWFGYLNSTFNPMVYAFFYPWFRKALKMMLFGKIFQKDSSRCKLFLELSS", "experiment": "Fluorescence-based cell-based high throughput dose response assay to identify antagonists of the human trace amine associated receptor 1 (TAAR1).", "type": "functional"}, "[9]": {"experiment": "Counterscreen for antagonists of the human trace amine associated receptor 1 (hTAAR1): Fluorescence-based cell-based high throughput dose response assay to identify nonselective Ga16 antagonists.", "type": "functional"}, "[10]": {"target": "T2, Trace amine-associated receptor 1", "experiment": "Counterscreen for antagonists of the human trace amine associated receptor 1 (hTAAR1): Fluorescence-based cell-based high throughput dose response assay to identify TAAR1 Agonists.", "type": "functional"}, "HeLa": {"test_system": "HeLa", "experiment": "HeLa cell cytotoxicity, dose response, cytotoxicity control, ATP luminescence, cherry-pick samples (AID 687004)", "type": "functional, cell-based", "settings": "Homo sapiens"}},
  "note": "Active and inactive are the calls of the source.",
  "data": [
    {"smiles": "CCn1nnnc1NC(=O)c1ccc(N2CCCC2)cc1", "values": [
      {"measurement": "AC50", "setting": "[1]", "value": "19.7 µM (active)"}
    ]},
    {"smiles": "CCOC(=O)C1(CCOc2ccccc2)CCN(C(=O)c2ccc(O)c(Cl)c2)CC1", "values": [
      {"measurement": "AC50", "setting": "[2]", "value": "3 µM (active)"}
    ]},
    {"smiles": "O=C1C=CC(=O)N1c1ccccc1N1C(=O)C=CC1=O", "values": [
      {"measurement": "IC50", "setting": "CHO", "value": "2.55 µM (active)"},
      {"measurement": "IC50", "setting": "Beta Lactamase", "value": "13.6 µM (inactive)"},
      {"measurement": "IC50", "setting": "[3]", "value": "62.2 µM (active)"},
      {"measurement": "IC50", "setting": "NS3", "value": "34.9 µM (inactive)"}
    ]},
    {"smiles": "Cc1ccccc1N(C(=O)c1snc(C(N)=O)c1N)C(C(=O)NC1CCCCC1)c1ccc(O)cc1", "note": "(centres undefined)", "values": [
      {"measurement": "EC50", "setting": "[4]", "value": "12.8 µM (active)"},
      {"measurement": "EC50", "setting": "[5]", "value": "> 120 µM (not active)"},
      {"measurement": "EC50", "setting": "[6]", "value": "77.7 µM (active)"},
      {"measurement": "EC50", "setting": "[7]", "value": "> 29.9 µM (inactive)"},
      {"measurement": "IC50", "setting": "[8]", "value": "3.16 µM (active)"},
      {"measurement": "IC50", "setting": "[9]", "value": "> 29.9 µM (inactive)"},
      {"measurement": "EC50", "setting": "[10]", "value": "> 29.9 µM (inactive)"}
    ]},
    {"smiles": "COc1ccc(C(=O)NC(=S)Nc2ccccc2N2CCOCC2)cc1[N+](=O)[O-]", "values": [
      {"measurement": "AC50", "setting": "HeLa", "value": "> 52 µM (inactive)"}
    ]}
  ]
}
